Measured values: PubChem BioAssay AID1794824

Molecular target: Sodium- and chloride-dependent taurine transporter (Homo sapiens) (UniProt P31641)
Test: SLC6A6 taurine transporter substrate activity, dose response, cell-based, membrane potential dye, HEK-293, SLC6A6 overexpression (AID 1794824)
Settings: HEK-293 SLC6A6 OE, FLIPR membrane potential dye

Sodium- and chloride-dependent taurine transporter (Homo sapiens), sequence (P31641 whole entry, looked up): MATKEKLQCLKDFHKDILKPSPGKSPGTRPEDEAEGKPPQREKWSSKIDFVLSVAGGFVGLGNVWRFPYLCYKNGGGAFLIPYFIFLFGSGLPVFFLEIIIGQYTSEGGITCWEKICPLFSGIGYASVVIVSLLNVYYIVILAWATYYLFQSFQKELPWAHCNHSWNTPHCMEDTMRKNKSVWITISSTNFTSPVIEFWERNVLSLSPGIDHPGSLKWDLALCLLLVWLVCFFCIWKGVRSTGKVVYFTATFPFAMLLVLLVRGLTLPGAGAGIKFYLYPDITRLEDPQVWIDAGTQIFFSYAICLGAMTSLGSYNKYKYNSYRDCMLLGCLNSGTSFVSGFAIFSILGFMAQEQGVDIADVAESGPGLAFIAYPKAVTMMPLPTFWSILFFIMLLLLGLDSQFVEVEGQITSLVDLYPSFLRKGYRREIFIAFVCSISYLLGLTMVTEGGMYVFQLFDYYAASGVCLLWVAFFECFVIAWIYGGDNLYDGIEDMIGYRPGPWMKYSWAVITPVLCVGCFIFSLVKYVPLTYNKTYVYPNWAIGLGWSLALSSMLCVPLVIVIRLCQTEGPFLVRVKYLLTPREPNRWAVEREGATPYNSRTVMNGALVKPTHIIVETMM

EC50 [µM] | Compound
10 | NCCS(=O)(=O)O
354 | NCCCC(=O)O
